# Laboratory results taken from publication PMC4298654, “In vivo formation of N-acyl-fumonisin B1” (Mycotoxin Research, 2014).
# Like-named read-outs stand apart in the source and are kept apart here.
# Experiments:
# [1] = rats fed with fumonisin-contaminated diet; ref Riley and Voss 2006; cited from earlier work
# [2] = set-up: method as in Bulder et al. 2012; conditions: ref Bulder et al. 2012; cited from earlier work
# [3] = In vivo formation of NAFB1 and NAHFB1 in rat kidney and liver (HPLC-ESI-MS/MS); conditions: kidney; FB1 2.77 or HFB1 2.47 μmol/kg body weight per day ip, 5 days
# From the text: (§1) The study protocol was approved by the Institutional Animal Care and Use Committee, Richard B. Russell Agricultural Research Center, Athens, GA. Male Sprague–Dawley rats (Harlan Industries, Indianapolis, IN, USA), 7 weeks of age at receipt, were individually housed in stainless steel, wire mesh cages in an environmentally controlled room having a 12-h light/dark cycle. Food (2019 Global Rodent Diet, Teklad, Madison, WI, USA) and fresh tap water were provided ad libitum. After a 1 week acclimation period, the animals were randomly assigned to five groups (n = 2/group) having mean weights of 215 to 216 g (weight range of all animals, 211 to 220 g). For five consecutive days, they were observed, weighed, and given an intraperitoneal injection (ip) of 0 (vehicle), 0.5, 1.0, or 2.0 mg/kg body weight FB1 (provided by R. Eppley, US FDA), 1.0 mg/kg body weight HFB1 (positive control) (Voss et al. [2009]), or vehicle (0.9 % physiological saline). These doses corresponded to 0.69, 1.38, and 2.77 μmol FB1/kg body weight and 2.47 μmol/kg body weight HFB1 per day. In order to compare the effects of FB1 and HFB1, dosages will be expressed as molar concentrations and, on this basis, the high dose of FB1 is roughly equivalent to that of the positive control dose of HFB1. Dosing solutions were sterile filtered and administered at a volume rate of 10 ml/kg body weight. The animals were fasted overnight prior to administration of the final dose. The rats were euthanized (CO2 inhalation and exsanguination) 60 to 90 min following the final dose administration and examined by necropsy. The kidney and liver specimens were fixed in 10 % neutral buffered formalin, processed, and microscopically evaluated without knowledge of the animal’s identity or treatment group. Three representative liver and kidney specimens (100 mg each) were also collected, immediately frozen, and stored (−80 °C) until processed, at which time the tissues were thawed and homogenized in distilled/deionized water (1 ml water/100 mg tissue). The homogenates were lyophilized before they were shipped by overnight courier for the analysis of fumonisin metabolites and sphingolipids.
# (§2) Lyophilized liver and kidney tissues (100 mg wet weight equivalents) were processed for the quantification of FB1, HFB1, NAFB1, NAHFB1, and sphingolipids. Preparation of the tissue samples was performed according to a previously published method (Harrer et al. [2013]). For the quantification of FB1 and HFB1, a d6-labeled derivative of FB1 (FB1-d6) was used as the internal standard. Synthetic derivatives with a heptadecanoic fatty acid (C17:0) residue were used as internal standards for the quantification of N-acyl-fumonisins and ceramides (N-C17:0-FB1, N-C17:0-HFB1, and N-C17:0-ceramide). The sphingoid bases and their phosphate derivatives were quantified using synthetic derivatives with a C17-acyl-backbone: sphingosine (C17:1), sphingosine-1-phosphate (C17:1), sphinganine (C17:0), sphinganine-1-phosphate (C17:0) as internal standards. The standards were dissolved in methanol:chloroform (2:1, v/v) and then mixed with the tissue samples. The samples spiked with internal standard were kept at room temperature for 30 min before being processed further. The internal standard-spiked samples were first extracted with ethyl acetate, isopropanol, and water (60:30:10, v/v/v) and a second time using methanol, chloroform, and water (60:30:10, v/v/v). The extracts were combined, the solvents removed by evaporation, and the dried samples stored at−80 °C till analyzed.
# (§3) For the analysis, the samples were reconstituted in a mixture of water, methanol, and tetrahydrofurane (60:24:16, v/v/v). The NAFB1 and NAHFB1 derivatives having the following fatty acyl chain lengths were quantified by HPLC-MS/MS: C16:0, C18:0, C20:0, C22:0, C24:0, C26:0. Furthermore, we also quantified the unsaturated derivatives C24:1 and C26:1. The results are given as the sum of all N-acyl derivatives of FB1 or HFB1. […]
# [4] = set-up: method as in Martinez-Larranaga et al. 1999; conditions: single dose, ref Martinez-Larranaga et al. 1999, cited from earlier work
# sphingolipid metabolism = assay: Sphingolipid levels in rat kidney and liver after ip FB1 or HFB1; format: in vivo; conditions: 5 days; for levels of sphingoid bases and 1-phosphates (total sphingosine, total sphinganine) in tissues compared to vehicle-treated controls: ip
# From the text: as §1, §2
# rat liver and kidney = assay: Histological examination of rat liver and kidney; format: in vivo; conditions: ip, 5 days; FB1 0.5, 1.0, 2.0 mg/kg or HFB1 1.0 mg/kg body weight per day; n = 2/group
# From the text: The study protocol was approved by the Institutional Animal Care and Use Committee, Richard B. Russell Agricultural Research Center, Athens, GA. Male Sprague–Dawley rats (Harlan Industries, Indianapolis, IN, USA), 7 weeks of age at receipt, were individually housed in stainless steel, wire mesh cages in an environmentally controlled room having a 12-h light/dark cycle. Food (2019 Global Rodent Diet, Teklad, Madison, WI, USA) and fresh tap water were provided ad libitum. After a 1 week acclimation period, the animals were randomly assigned to five groups (n = 2/group) having mean weights of 215 to 216 g (weight range of all animals, 211 to 220 g). For five consecutive days, they were observed, weighed, and given an intraperitoneal injection (ip) of 0 (vehicle), 0.5, 1.0, or 2.0 mg/kg body weight FB1 (provided by R. Eppley, US FDA), 1.0 mg/kg body weight HFB1 (positive control) (Voss et al. [2009]), or vehicle (0.9 % physiological saline). […] In order to compare the effects of FB1 and HFB1, dosages will be expressed as molar concentrations and, on this basis, the high dose of FB1 is roughly equivalent to that of the positive control dose of HFB1. […] The kidney and liver specimens were fixed in 10 % neutral buffered formalin, processed, and microscopically evaluated without knowledge of the animal’s identity or treatment group. […]
# [5] = Tissue FB1 and HFB1 concentrations in rat kidney and liver (HPLC-ESI-MS/MS); format: in vivo; conditions: HFB1 2.47 μmol/kg body weight per day ip, 5 days
# From the text: as §1, §2, §3
# [6] = kidney, dose High: 2.77 μmol FB1/kg or 2.47 μmol HFB1/kg body weight per day ip
# [7] = kidney, dose Low: 0.69 μmol FB1/kg body weight per day ip
# [8] = kidney, dose Mid: 1.38 μmol FB1/kg body weight per day ip
# [9] = liver, dose High: 2.77 μmol FB1/kg or 2.47 μmol HFB1/kg body weight per day ip
# [10] = liver, dose Low: 0.69 μmol FB1/kg body weight per day ip
# [11] = liver, dose Mid: 1.38 μmol FB1/kg body weight per day ip
smiles,measurement,setting,value
"CCCC[C@@H](C)[C@@H](OC(=O)C[C@@H](CC(=O)O)C(=O)O)[C@H](C[C@@H](C)C[C@H](O)CCCC[C@@H](O)C[C@H](O)[C@H](C)N)OC(=O)C[C@@H](CC(=O)O)C(=O)O [FB1, Fumonisin B1]",FB1 concentration (ng/g wet weight) in the kidney relative to the liver,[1],approximately tenfold higher
same,absorption after oral exposure,[2],< 5 % of dose
same,metabolites of the dosed mycotoxin found in the kidney,[3],less than 0.5 nmol/g
same,AUCtissue/AUCplasma ratio,[4]; kidney,29.9
same,AUCtissue/AUCplasma ratio,[4]; liver,2.03
same,tissue ceramide concentrations,"sphingolipid metabolism; kidney and liver, FB1 ip",decreased in both tissues
same,"levels of sphingoid bases and 1-phosphates (total sphingosine, total sphinganine) in tissues compared to vehicle-treated controls",sphingolipid metabolism; kidney and liver,increased amounts
same,Sa/So ratio,sphingolipid metabolism; [6],3.8 ± 1.8
same,sphinganine (Sa),sphingolipid metabolism; [6],207 ± 79.9 nmol/g
same,sphinganine-1-phosphate (Sa1P),sphingolipid metabolism; [6],19.9 ± 1.0 nmol/g
same,sphingosine (So),sphingolipid metabolism; [6],56 ± 6.2 nmol/g
same,sphingosine-1-phospate (So1P),sphingolipid metabolism; [6],21.6 ± 4.5 nmol/g
same,Sa/So ratio,sphingolipid metabolism; [7],4.1 ± 1.0
same,sphinganine (Sa),sphingolipid metabolism; [7],252 ± 15.6 nmol/g
same,sphinganine-1-phosphate (Sa1P),sphingolipid metabolism; [7],16.7 ± 0.5 nmol/g
same,sphingosine (So),sphingolipid metabolism; [7],63 ± 11.5 nmol/g
same,sphingosine-1-phospate (So1P),sphingolipid metabolism; [7],21.4 ± 4.1 nmol/g
same,Sa/So ratio,sphingolipid metabolism; [8],2.5 ± 0.2
same,sphinganine (Sa),sphingolipid metabolism; [8],146 ± 11.3 nmol/g
same,sphinganine-1-phosphate (Sa1P),sphingolipid metabolism; [8],11.3 ± 1.5 nmol/g
same,sphingosine (So),sphingolipid metabolism; [8],59 ± 8.3 nmol/g
same,sphingosine-1-phospate (So1P),sphingolipid metabolism; [8],20.8 ± 0.7 nmol/g
same,Sa/So ratio,sphingolipid metabolism; [9],5.9 ± 0.0
same,sphinganine (Sa),sphingolipid metabolism; [9],81 ± 17.1 nmol/g
same,sphinganine-1-phosphate (Sa1P),sphingolipid metabolism; [9],0.9 ± 0.5 nmol/g
same,sphingosine (So),sphingolipid metabolism; [9],14 ± 2.9 nmol/g
same,sphingosine-1-phospate (So1P),sphingolipid metabolism; [9],1.0 ± 0.3 nmol/g
same,Sa/So ratio,sphingolipid metabolism; [10],4.2 ± 0.9
same,sphinganine (Sa),sphingolipid metabolism; [10],68 ± 27.6 nmol/g
same,sphinganine-1-phosphate (Sa1P),sphingolipid metabolism; [10],0.2 ± 0.2 nmol/g
same,sphingosine (So),sphingolipid metabolism; [10],16 ± 3.3 nmol/g
same,sphingosine-1-phospate (So1P),sphingolipid metabolism; [10],0.4 ± 0.2 nmol/g
same,Sa/So ratio,sphingolipid metabolism; [11],5.5 ± 1.2
same,sphinganine (Sa),sphingolipid metabolism; [11],88 ± 15.1 nmol/g
same,sphinganine-1-phosphate (Sa1P),sphingolipid metabolism; [11],0.4 ± 0.1 nmol/g
same,sphingosine (So),sphingolipid metabolism; [11],17 ± 6.4 nmol/g
same,sphingosine-1-phospate (So1P),sphingolipid metabolism; [11],0.8 ± 0.0 nmol/g
same,microscopic appearance of kidney and liver,rat liver and kidney,"Mild to moderate apoptotic, mitotic, and other effects consistent with fumonisin exposure"
"CCCC[C@@H](C)[C@@H](O)[C@@H](O)C[C@@H](C)C[C@H](O)CCCC[C@@H](O)C[C@H](O)[C@H](C)N [HFB1, Hydrolyzed fumonisin B1, reference compound]",metabolites of the dosed mycotoxin found in the kidney,[3],less than 0.5 nmol/g
same,"levels of sphingoid bases and 1-phosphates (total sphingosine, total sphinganine) in tissues compared to vehicle-treated controls",sphingolipid metabolism; kidney and liver,did not cause any significant changes
same,Sa/So ratio,sphingolipid metabolism; [6],0.3 ± 0.0
same,sphinganine (Sa),sphingolipid metabolism; [6],3 ± 0.7 nmol/g
same,sphinganine-1-phosphate (Sa1P),sphingolipid metabolism; [6],0.6 ± 0.4 nmol/g
same,sphingosine (So),sphingolipid metabolism; [6],9 ± 2.8 nmol/g
same,sphingosine-1-phospate (So1P),sphingolipid metabolism; [6],0.4 ± 0.1 nmol/g
same,Sa/So ratio,sphingolipid metabolism; [9],0.5 ± 0.4
same,sphinganine (Sa),sphingolipid metabolism; [9],2 ± 1 nmol/g
same,sphinganine-1-phosphate (Sa1P),sphingolipid metabolism; [9],0.1 ± 0.1 nmol/g
same,sphingosine (So),sphingolipid metabolism; [9],3 ± 0.2 nmol/g
same,sphingosine-1-phospate (So1P),sphingolipid metabolism; [9],0.2 ± 0.0 nmol/g
same,HFB1 molar concentration in the liver relative to the kidney,[5],about sixfold higher
same,HFB1 molar concentration in tissue,[5]; kidney,0.27 nmol/g
same,"unmetabolized HFB1 accumulated in tissue, % of the total dose (TD)",[5]; kidney,< 0.1 % TD
same,"total amount of HFB1 species in tissue, % of the total dose (TD)","[5]; kidney, HFB1 plus N-acyl metabolites",0.03 % TD
same,HFB1 molar concentration in tissue,[5]; liver,1.78 nmol/g
same,"unmetabolized HFB1 accumulated in tissue, % of the total dose (TD)",[5]; liver,0.7 % TD
same,microscopic appearance of kidney and liver,rat liver and kidney,could not be differentiated from that of tissues from the vehicle control group
